Measurements as given in patent US20070167412A1, “HALOCOMBSTATINS AND METHODS OF SYNTHESIS THEREOF” (ARIZONA BOARD OF REGENTS, priority 2003, published 2007).

Legend:
Assay type in all cases: cell-based
CNS SF268 = test: human cancer cell growth inhibition, sulforhodamine B assay; conditions: 48 hours; for Human cancer cell line inhibition (GI50) CNS SF268: Table I; for human cancer cell line growth inhibition (GI50) CNS SF268: Table Ia
Experimental: (§1) Inhibition of human cancer cell growth was assessed using the National Cancer Institute's standard sulforhodamine B assay. After 48 hours, the plates were fixed with trichloracetic acid, stained with sulforhodamine B and read with an automated microplate reader. […] Inhibition of the mouse leukemia P388 cells was assessed in a 10% horse serum/Fisher medium soution for 24 hours, followed by a 48 hour incubation with serial dilutions of the compounds. Cell growth inhibition (ED50) was then calculated using a Z1 Becleman/Coulter particle counter.

Prostate DU-145 = test: as above; conditions: 48 hours; for Human cancer cell line inhibition (GI50) Prostate DU-145: Table I; for human cancer cell line growth inhibition (GI50) Prostate DU-145: Table Ia
Experimental: as §1

Breast MCF-7 = test: as above; conditions: 48 hours; for Human cancer cell line inhibition (GI50) Breast adn MCF-7: Table I; for human cancer cell line growth inhibition (GI50) Breast MCF-7: Table Ia
Experimental: as §1

Colon KM20L2 = test: as above; conditions: 48 hours; for Human cancer cell line inhibition (GI50) Colon KM20L2: Table I; for human cancer cell line growth inhibition (GI50) Colon KM20L2: Table Ia
Experimental: as §1

Pancreas BXPC-3 = test: as above; conditions: 48 hours; for Human cancer cell line inhibition (GI50) Pancreas-a BXPC-3: Table I; for human cancer cell line growth inhibition (GI50) Pancreas BXPC-3: Table Ia
Experimental: as §1

Lung-NSC NCI-H460 = test: as above; conditions: 48 hours; for Human cancer cell line inhibition (GI50) Lung-NSC NCI-H460: Table I; for human cancer cell line growth inhibition (GI50) Lung-NSC NCI-H460: Table Ia
Experimental: as §1

[1] = system: Stenotrophomonas maltophilia; test: reference broth microdilution susceptibility assay
From the text: (§2) The halocombstatins of the present invention appear to also have antimicrobial properties. More specifically, they appear to have antifungal and/or antibacterial properties. Antimicrobial evaluation of the halocombstatins involved susceptibility testing performed by the reference broth microdilution assay. The antimicrobial activities of the halocombstatins were very similar, targeting Gram-positive bacteria and the pathogenic fungi Cryptococcus neoformans, and results are shown in Table III.
(§3) (See Pettit, G. R., et al., Antineoplastic Agents 463. Synthesis of Combretastatin A-3 Diphosphates, Anticancer Drug Design 2000, 15, 397-404.) To determine the antimicrobial activity of the present compounds, susceptibility testing was performed by the reference broth microdilution assay. (See National Committee for Clinical Laboratory Standards. Methods for Dilution Antimicrobial Susceptibility Tests for Bacteria that Grow Aerobically. Approved Standard M7-A5. Wayne, P A: NCCLS, 2000. National Committee for Clinical Laboratory Standards. Reference Method for Broth Dilution Antifungal Susceptibility Testing of Yeasts. Aproved Standard M27-A. Wayne, P A: NCCLS, 1997.) The antimicrobial activities of the halocombretastatins of the present invention were very similar, targeting Gram-positive bacteria and Cryptococcus neoformans. This is illustrated in further detail in Table III. Thus, several of the novel compounds of the present invention appear to have potential as antimicrobial agents, such as antifingals and antibacterials.

Candida albicans = test: reference broth microdilution susceptibility assay
From the text: as §2, §3

Enterobacter cloacae = test: reference broth microdilution susceptibility assay
From the text: as §2, §3

Neisseria gonorrhoeae = test: reference broth microdilution susceptibility assay
From the text: as §2, §3

Escherichia coli = test: reference broth microdilution susceptibility assay
From the text: as §2, §3

Micrococcus luteus = test: reference broth microdilution susceptibility assay
From the text: as §2, §3

Enterococcus faecalis = test: reference broth microdilution susceptibility assay
From the text: as §2, §3

Streptococcus pneumoniae = test: reference broth microdilution susceptibility assay
From the text: as §2, §3

Staphylococcus aureus = test: reference broth microdilution susceptibility assay
From the text: as §2, §3

Cryptococcus neoformans = test: reference broth microdilution susceptibility assay
From the text: as §2, §3

Compound | Human cancer cell line inhibition (GI50) CNS SF268 (CNS SF268) [µg/mL] | Human cancer cell line inhibition (GI50) Prostate DU-145 (Prostate DU-145) [µg/mL] | Human cancer cell line inhibition (GI50) Breast adn MCF-7 (Breast MCF-7) [µg/mL] | Human cancer cell line inhibition (GI50) Colon KM20L2 (Colon KM20L2) [µg/mL] | Human cancer cell line inhibition (GI50) Pancreas-a BXPC-3 (Pancreas BXPC-3) [µg/mL] | Human cancer cell line inhibition (GI50) Lung-NSC NCI-H460 (Lung-NSC NCI-H460) [µg/mL] | human cancer cell line growth inhibition (GI50) CNS SF268 (CNS SF268) [µg/mL] | human cancer cell line growth inhibition (GI50) Prostate DU-145 (Prostate DU-145) [µg/mL] | human cancer cell line growth inhibition (GI50) Breast MCF-7 (Breast MCF-7) [µg/mL] | human cancer cell line growth inhibition (GI50) Colon KM20L2 (Colon KM20L2) [µg/mL] | human cancer cell line growth inhibition (GI50) Pancreas BXPC-3 (Pancreas BXPC-3) [µg/mL] | human cancer cell line growth inhibition (GI50) Lung-NSC NCI-H460 (Lung-NSC NCI-H460) [µg/mL] | other results
3-Brombo-4,4′,5-trimethoxy-3′-hydroxy-E-stilbene [Compound 13b] | 0.18 | 0.13 | 0.14 | 1.2 | 1.6 | 0.15 | – | – | – | – | – | – | Range of minimum inhibitory concentration, Stenotrophomonas maltophilia ([1]; Table III): * (no inhibition at 64 μg/ml); Range of minimum inhibitory concentration, Candida albicans (Candida albicans; Table III): * (no inhibition at 64 μg/ml); Range of minimum inhibitory concentration, Enterobacter cloacae (Enterobacter cloacae; Table III): * (no inhibition at 64 μg/ml); Range of minimum inhibitory concentration, Neisseria gonorrhoeae (Neisseria gonorrhoeae; Table III): * (no inhibition at 64 μg/ml); Range of minimum inhibitory concentration, Escherichia coli (Escherichia coli; Table III): * (no inhibition at 64 μg/ml); Range of minimum inhibitory concentration, Micrococcus luteus (Micrococcus luteus; Table III): * (no inhibition at 64 μg/ml); Range of minimum inhibitory concentration, Enterococcus faecalis (Enterococcus faecalis; Table III): * (no inhibition at 64 μg/ml); Range of minimum inhibitory concentration, Streptococcus pneumoniae (Streptococcus pneumoniae; Table III): * (no inhibition at 64 μg/ml); Range of minimum inhibitory concentration, Staphylococcus aureus (Staphylococcus aureus; Table III): * (no inhibition at 64 μg/ml); Range of minimum inhibitory concentration, Cryptococcus neoformans (Cryptococcus neoformans; Table III): * (no inhibition at 64 μg/ml)
COc1ccc(/C=C\c2cc(I)c(OC)c(I)c2)cc1OP(=O)([O-])[O-].[Na+].[Na+] [Compound 0] | – | – | – | – | – | – | – | – | – | – | – | – | Range of MIC, Stenotrophomonas maltophilia ([1]; Table VII, ATCC 13637): * (no inhibition at 64 μg/ml); Range of MIC, Candida albicans (Candida albicans; Table VII, ATCC 90028): * (no inhibition at 64 μg/ml); Range of MIC, Enterobacter cloacae (Enterobacter cloacae; Table VII, ATCC 13047): * (no inhibition at 64 μg/ml); Range of MIC, Neisseria gonorrhoeae (Neisseria gonorrhoeae; Table VII, ATCC 49226): 32 to 64 µg/mL; Range of MIC, Escherichia coli (Escherichia coli; Table VII, ATCC 25922): * (no inhibition at 64 μg/ml); Range of MIC, Micrococcus luteus (Micrococcus luteus; Table VII, Presque Isle 456): * (no inhibition at 64 μg/ml); Range of MIC, Enterococcus faecalis (Enterococcus faecalis; Table VII, ATCC 29212): * (no inhibition at 64 μg/ml); Range of MIC, Streptococcus pneumoniae (Streptococcus pneumoniae; Table VII, ATCC 6303): * (no inhibition at 64 μg/ml); Range of MIC, Staphylococcus aureus (Staphylococcus aureus; Table VII, ATCC 29213): * (no inhibition at 64 μg/ml); Range of MIC, Cryptococcus neoformans (Cryptococcus neoformans; Table VII, ATCC 90112): * (no inhibition at 64 μg/ml)
C1COCCN1.C1COCCN1.COc1ccc(/C=C\c2cc(I)c(OC)c(I)c2)cc1OP(=O)(O)O [V] | – | – | – | – | – | – | 0.054 | 0.028 | 0.066 | >1 | 0.35 | 0.033 | –
C1CCNCC1.C1CCNCC1.COc1ccc(/C=C\c2cc(I)c(OC)c(I)c2)cc1OP(=O)(O)O [W] | – | – | – | – | – | – | 0.041 | 0.025 | 0.070 | >1 | 0.33 | 0.025 | –
COC(=O)CN.COC(=O)CN.COc1ccc(/C=C\c2cc(I)c(OC)c(I)c2)cc1OP(=O)(O)O [X] | – | – | – | – | – | – | 0.054 | 0.023 | 0.10 | >1 | 0.36 | 0.030 | –
COC(=O)C(N)Cc1c[nH]c2ccccc12.COC(=O)C(N)Cc1c[nH]c2ccccc12.COc1ccc(C=Cc2cc(I)c(OC)c(I)c2)cc1OP(=O)(O)O [Y] | – | – | – | – | – | – | 0.086 | 0.026 | 0.22 | >1 | 0.37 | 0.033 | –
COc1ccc(/C=C\c2cc(I)c(OC)c(I)c2)cc1OP(=O)(O)O.NC(CO)(CO)CO.NC(CO)(CO)CO [Z] | – | – | – | – | – | – | 0.040 | 0.021 | 0.047 | 0.94 | 0.33 | 0.025 | –
Calcium 3-bromo-4,4′,5-trimethoxy-Z-stilbene 3′-O-phosphate [Compound 19f] | 0.0022 | 0.0063 | 0.0022 | 0.37 | <0.001 | 0.0068 | – | – | – | – | – | – | –
Cesium 3-bromo-4,4′,5-trimethoiy-phenyl-Z-stilbene 3′-O-phosphate [Compound 19d] | 0.0064 | 0.0079 | 0.0044 | 0.48 | 0.15 | 0.0066 | – | – | – | – | – | – | –
Lithium 3-bromo-4,4′,5-trbnethoxy-Z-stilbene 3′-O-phosphate [Compound 19b] | 0.0030 | 0.0066 | 0.0039 | 0.11 | 0.13 | 0.0026 | – | – | – | – | – | – | –
Magnesium 3-bromg-4,4′,5-trimethoxy-Z-stilbene 3′-O-phosphate [Compound 19g] | 0.0053 | 0.0045 | 0.0045 | 0.27 | 0.074 | 0.0039 | – | – | – | – | – | – | –
Potassium 3-bromo-4,4′,5-trimethoxy-Z-stilbene 3′-O-phosphate [Compound 19c] | 0.0032 | 0.0028 | 0.0035 | 0.24 | 0.20 | 0.0029 | – | – | – | – | – | – | –
Rubidium 3-bromo-4,4′,5-trimetboxy-Z-stilbene 3′-O-phosphate [Compound 19e] | 0.023 | 0.042 | 0.043 | 2.6 | 0.56 | 0.041 | – | – | – | – | – | – | –
Sodium 3-bromo-4,4′,-5-trimethoxy-Z-stilbene 3′-O-phosphate [Compound 19a] | 0.0034 | 0.0046 | 0.0041 | 0.23 | 0.093 | 0.0028 | – | – | – | – | – | – | –
sodium combretastatin A-4 phosphate [Compound 1b, reference compound] | 0.036 | – | – | 0.034 | – | 0.029 | – | – | – | – | – | – | –
